Results taken from patent US7915291B2, “Hepatitis C virus inhibitors” (Bristol-Myers Squibb Company, priority 2002, dated 2011).

How the values were obtained:
[1] = target: HCV NS3/4A protease complex, BMS strain (UniProt P27958, C1454S/C1711G, species not given/STRAIN_BMS); experiment: Recombinant HCV NS3/4A protease complex FRET peptide assay (BMS strain); assay type: biochemical, HCV genotype 1a; conditions: NS3/4A BMS strain; read-out: IC50 range
In short: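 Recombinant BMS-strain NS3/4A (His-tagged NS4A with three-lysine tail, E. coli) at 2-3 nM preincubated 1 min with compound, then 2 μM ester-linked NS4A/NS4B-based FRET peptide added. Fluorescence followed in real time ~15 min at 25° C. Percent inhibition from slope of linear fluorescence change versus no-compound control.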

[2] = tested on: HCV replicon in Huh7 cells; experiment: HCV replicon cell-based assay; design: species or system HCV strain 1B; conditions: Hepatitis C virus, Huh-7; HCV replicon, Huh7 cells; read-out: EC50 range

Compound | IC50 [1] [nM] | EC50 [2] [nM]
C=C[C@@H]1C[C@]1(NC(=O)[C@@H]1C[C@@H](Oc2ncc(C)c3ccccc23)CN1C(=O)[C@@H](NC(=O)OC(C)(C)C)C(C)(C)C)C(=O)NS(=O)(=O)C1CC1 [Compound 250] | < 100 | < 100
C=C[C@@H]1C[C@]1(NC(=O)[C@@H]1C[C@@H](Oc2ncc(OC)c3ccccc23)CN1C(=O)[C@@H](NC(=O)OC(C)(C)C)C(C)(C)C)C(=O)NS(=O)(=O)C1CC1 [Compound 251] | < 100 | < 100
C=C[C@@H]1C[C@]1(NC(=O)[C@@H]1C[C@@H](Oc2nccc3c(C)cccc23)CN1C(=O)[C@@H](NC(=O)OC(C)(C)C)C(C)(C)C)C(=O)NS(=O)(=O)C1CC1 [Compound 252] | < 100 | < 100
C=C[C@@H]1C[C@]1(NC(=O)[C@@H]1C[C@@H](Oc2nccc3c(OC)cccc23)CN1C(=O)[C@@H](NC(=O)OC(C)(C)C)C(C)(C)C)C(=O)NS(=O)(=O)C1CC1 [Compound 253] | < 100 | < 100
C=C[C@@H]1C[C@]1(NC(=O)[C@@H]1C[C@@H](Oc2nccc3c(Cl)cccc23)CN1C(=O)[C@@H](NC(=O)OC(C)(C)C)C(C)(C)C)C(=O)NS(=O)(=O)C1CC1 [Compound 254] | < 100 | < 100
C=C[C@@H]1C[C@]1(NC(=O)[C@@H]1C[C@@H](Oc2nccc3c(F)cccc23)CN1C(=O)[C@@H](NC(=O)OC(C)(C)C)C(C)(C)C)C(=O)NS(=O)(=O)C1CC1 [Compound 255] | < 100 | 100 to 1000
C=C[C@@H]1C[C@]1(NC(=O)[C@@H]1C[C@@H](Oc2nccc3ccc(F)cc23)CN1C(=O)[C@@H](NC(=O)OC(C)(C)C)C(C)(C)C)C(=O)NS(=O)(=O)C1CC1 [Compound 257] | < 100 | < 100
C=C[C@@H]1C[C@]1(NC(=O)[C@@H]1C[C@@H](Oc2nccc3ccc(Cl)cc23)CN1C(=O)[C@@H](NC(=O)OC(C)(C)C)C(C)(C)C)C(=O)NS(=O)(=O)C1CC1 [Compound 258] | < 100 | < 100
C=C[C@@H]1C[C@]1(NC(=O)[C@@H]1C[C@@H](Oc2nccc3ccc(C)cc23)CN1C(=O)[C@@H](NC(=O)OC(C)(C)C)C(C)(C)C)C(=O)NS(=O)(=O)C1CC1 [Compound 259] | < 100 | < 100
C=C[C@@H]1C[C@]1(NC(=O)[C@@H]1C[C@@H](Oc2nccc3ccc(OC)cc23)CN1C(=O)[C@@H](NC(=O)OC(C)(C)C)C(C)(C)C)C(=O)NS(=O)(=O)C1CC1 [Compound 260] | < 100 | 100 to 1000
C=C[C@@H]1C[C@]1(NC(=O)[C@@H]1C[C@@H](Oc2nccc3cc(OC)c(F)cc23)CN1C(=O)[C@@H](NC(=O)OC(C)(C)C)C(C)(C)C)C(=O)NS(=O)(=O)C1CC1 [Compound 261] | < 100 | < 100
C=C[C@@H]1C[C@]1(NC(=O)[C@@H]1C[C@@H](Oc2cc3c(Cl)nccc3cc2OC)CN1C(=O)[C@@H](NC(=O)OC(C)(C)C)C(C)(C)C)C(=O)NS(=O)(=O)C1CC1 [Compound 262] | < 100 | < 100
C=C[C@@H]1C[C@]1(NC(=O)[C@@H]1C[C@@H](Oc2nccc3cccc(C)c23)CN1C(=O)[C@@H](NC(=O)OC(C)(C)C)C(C)(C)C)C(=O)NS(=O)(=O)C1CC1 [Compound 263] | 100 to 1000 | 100 to 1000
C=C[C@@H]1C[C@]1(NC(=O)[C@@H]1C[C@@H](Oc2nccc3cccc(OC)c23)CN1C(=O)[C@@H](NC(=O)OC(C)(C)C)C(C)(C)C)C(=O)NS(=O)(=O)C1CC1 [Compound 264] | 100 to 1000 | 1000 to 10000
C=C[C@@H]1C[C@]1(NC(=O)[C@@H]1C[C@@H](Oc2nccc3c4c(ccc23)CCO4)CN1C(=O)[C@@H](NC(=O)OC(C)(C)C)C(C)(C)C)C(=O)NS(=O)(=O)C1CC1 [Compound 265] | < 100 | < 100
C=C[C@@H]1C[C@]1(NC(=O)[C@@H]1C[C@@H](Oc2nccc3c2ccc2ccoc23)CN1C(=O)[C@@H](NC(=O)OC(C)(C)C)C(C)(C)C)C(=O)NS(=O)(=O)C1CC1 [Compound 266] | < 100 | < 100
C=C[C@@H]1C[C@]1(NC(=O)[C@@H]1C[C@@H](Oc2nccc3c4c(ccc23)OCC4)CN1C(=O)[C@@H](NC(=O)OC(C)(C)C)C(C)(C)C)C(=O)NS(=O)(=O)C1CC1 [Compound 267] | < 100 | < 100
C=C[C@@H]1C[C@]1(NC(=O)[C@@H]1C[C@@H](Oc2nccc3c2ccc2occc23)CN1C(=O)[C@@H](NC(=O)OC(C)(C)C)C(C)(C)C)C(=O)NS(=O)(=O)C1CC1 [Compound 268] | < 100 | < 100
C=C[C@@H]1C[C@]1(NC(=O)[C@@H]1C[C@@H](Oc2nccc3c(OC(F)(F)F)cccc23)CN1C(=O)[C@@H](NC(=O)OC(C)(C)C)C(C)(C)C)C(=O)NS(=O)(=O)C1CC1 [Compound 269] | < 100 | 100 to 1000

Compound | IC50 [1] [nM] | EC50 [2] [nM]
C=C[C@@H]1C[C@]1(NC(=O)[C@@H]1C[C@@H](Oc2nccc3c(C(F)(F)F)cccc23)CN1C(=O)[C@@H](NC(=O)OC(C)(C)C)C(C)(C)C)C(=O)NS(=O)(=O)C1CC1 [Compound 270] | < 100 | 100 to 1000
C=C[C@@H]1C[C@]1(NC(=O)[C@@H]1C[C@@H](Oc2nccc3c(N4CCOCC4)cccc23)CN1C(=O)[C@@H](NC(=O)OC(C)(C)C)C(C)(C)C)C(=O)NS(=O)(=O)C1CC1 [Compound 271] | < 100 | 100 to 1000
C=C[C@@H]1C[C@]1(NC(=O)[C@@H]1C[C@@H](Oc2nccc3c(OC)c(OC)ccc23)CN1C(=O)[C@@H](NC(=O)OC(C)(C)C)C(C)(C)C)C(=O)NS(=O)(=O)C1CC1 [Compound 272] | < 100 | < 100
C=C[C@@H]1C[C@]1(NC(=O)[C@@H]1C[C@@H](Oc2nccc3cc(OC)c(Cl)cc23)CN1C(=O)[C@@H](NC(=O)OC(C)(C)C)C(C)(C)C)C(=O)NS(=O)(=O)C1CC1 [Compound 273] | < 100 | < 100
C=C[C@@H]1C[C@]1(NC(=O)[C@@H]1C[C@@H](Oc2nccc3c(F)c(OC)ccc23)CN1C(=O)[C@@H](NC(=O)OC(C)(C)C)C(C)(C)C)C(=O)NS(=O)(=O)C1CC1 [Compound 274] | < 100 | 100 to 1000
C=C[C@@H]1C[C@]1(NC(=O)[C@@H]1C[C@@H](Oc2nccc3c(Cl)c(OC)ccc23)CN1C(=O)[C@@H](NC(=O)OC(C)(C)C)C(C)(C)C)C(=O)NS(=O)(=O)C1CC1 [Compound 275] | < 100 | < 100
C=C[C@@H]1C[C@]1(NC(=O)[C@@H]1C[C@@H](Oc2nccc3c(OC)c(Cl)ccc23)CN1C(=O)[C@@H](NC(=O)OC(C)(C)C)C(C)(C)C)C(=O)NS(=O)(=O)C1CC1 [Compound 276] | < 100 | < 100
C=C[C@@H]1C[C@]1(NC(=O)[C@@H]1C[C@@H](Oc2ncc(Cl)c3cc(OC)ccc23)CN1C(=O)[C@@H](NC(=O)OC(C)(C)C)C(C)(C)C)C(=O)NS(=O)(=O)C1CC1 [Compound 278] | < 100 | < 100
C=C[C@@H]1C[C@]1(NC(=O)[C@@H]1C[C@@H](Oc2ncc(OC)c3cc(OC)ccc23)CN1C(=O)[C@@H](NC(=O)OC(C)(C)C)C(C)(C)C)C(=O)NS(=O)(=O)C1CC1 [Compound 279] | < 100 | < 100
C=C[C@@H]1C[C@]1(NC(=O)[C@@H]1C[C@@H](Oc2nccc3cc(O)ccc23)CN1C(=O)[C@@H](NC(=O)OC(C)(C)C)C(C)(C)C)C(=O)NS(=O)(=O)C1CC1 [Compound 280] | < 100 | < 100
C=C[C@@H]1C[C@]1(NC(=O)[C@@H]1C[C@@H](Oc2ncc(Cl)c3ccccc23)CN1C(=O)[C@@H](NC(=O)OC(C)(C)C)C(C)(C)C)C(=O)NS(=O)(=O)C1CC1 [Compound 281] | < 100 | < 100
C=C[C@@H]1C[C@]1(NC(=O)[C@@H]1C[C@@H](Oc2nccc3cc(OC(F)(F)F)ccc23)CN1C(=O)[C@@H](NC(=O)OC(C)(C)C)C(C)(C)C)C(=O)NS(=O)(=O)C1CC1 [Compound 282] | < 100 | 100 to 1000
C=C[C@@H]1C[C@]1(NC(=O)[C@@H]1C[C@@H](Oc2ccc3c(OC)cnc(Cl)c3c2)CN1C(=O)[C@@H](NC(=O)OC(C)(C)C)C(C)(C)C)C(=O)NS(=O)(=O)C1CC1 [Compound 283] | < 100 | 100 to 1000
C=C[C@@H]1C[C@]1(NC(=O)[C@@H]1C[C@@H](Oc2ncc(Cl)c3ccc(OC)cc23)CN1C(=O)[C@@H](NC(=O)OC(C)(C)C)C(C)(C)C)C(=O)NS(=O)(=O)C1CC1 [Compound 284] | 100 to 1000 | 10000 to 100000
C=CC1CC1(NC(=O)C1CC(Oc2nccc3c(OC(F)F)cccc23)CN1C(=O)C(NC(=O)OC(C)(C)C)C(C)(C)C)C(=O)NS(=O)(=O)C1CC1 (stereo not shown) [Compound 285] | < 100 | < 100
C=C[C@@H]1C[C@]1(NC(=O)[C@@H]1C[C@@H](Oc2nccc3c4c(ccc23)OCCO4)CN1C(=O)[C@@H](NC(=O)OC(C)(C)C)C(C)(C)C)C(=O)NS(=O)(=O)C1CC1 [Compound 286] | < 100 | < 100
C=C[C@@H]1C[C@]1(NC(=O)[C@@H]1C[C@@H](Oc2nccc3c4c(ccc23)OC(F)(F)O4)CN1C(=O)[C@@H](NC(=O)OC(C)(C)C)C(C)(C)C)C(=O)NS(=O)(=O)C1CC1 [Compound 287] | < 100 | 100 to 1000
C=C[C@@H]1C[C@]1(NC(=O)[C@@H]1C[C@@H](Oc2nccc3cc4c(cc23)OC(F)(F)O4)CN1C(=O)[C@@H](NC(=O)OC(C)(C)C)C(C)(C)C)C(=O)NS(=O)(=O)C1CC1 [Compound 288] | < 100 | 1000 to 10000
CC[C@@H]1C[C@]1(NC(=O)[C@@H]1C[C@@H](Oc2nccc3c4c(ccc23)OC(F)(F)O4)CN1C(=O)[C@@H](NC(=O)OC(C)(C)C)C(C)(C)C)C(=O)NS(=O)(=O)C1CC1 [Compound 289] | < 100 | 100 to 1000
